≈ marks a conversion by molar mass, not a printed value. Calls of active or inactive are those of the source. The calls are words filed in the database; no cut-off is given here.
Key:
[1] = tested on: Streptococcus pneumoniae; assay: Antibacterial activity against Streptococcus pneumoniae Mef 6966; assay type: functional
[2] = tested on: Streptococcus pneumoniae; assay: Antibacterial activity against Streptococcus pneumoniae Mef 1566; assay type: functional
[3] = tested on: Streptococcus pneumoniae; assay: Antibacterial activity against Streptococcus pneumoniae Erm S 4085; assay type: functional
[4] = tested on: Streptococcus pneumoniae; assay: Antibacterial activity against Streptococcus pneumoniae 280-962; assay type: functional
[5] = tested on: Streptococcus pneumoniae; assay: Antibacterial activity against Streptococcus pneumoniae 49619; assay type: functional
[6] = tested on: Streptococcus pneumoniae; assay: Antibacterial activity against Streptococcus pneumoniae Erm S 4297; assay type: functional
[7] = Plasma half life in Sprague-Dawley rat at 5 mg/kg, iv; assay type: ADME, organism-based; parameters: dose 5 mg/kg, route intravenous
[8] = Plasma half life in Sprague-Dawley rat at 15 mg/kg, po; assay type: ADME, organism-based; parameters: dose 15 mg/kg, route oral
[9] = tested on: Streptococcus pneumoniae; assay: Antibacterial activity against Streptococcus pneumoniae Erm 2218; assay type: functional
[10] = Lung-to-plasma AUC ratio in Sprague-Dawley rat at 5 mg/kg, iv; assay type: ADME, organism-based; parameters: dose 5 mg/kg, route intravenous; conditions: lung and plasma
[11] = tested on: Streptococcus pneumoniae; assay: Antibacterial activity against Streptococcus pneumoniae Erm 6849; assay type: functional
[12] = tested on: Streptococcus pneumoniae; assay: Antibacterial activity against Streptococcus pneumoniae Erm 8919; assay type: functional
[13] = tested on: Streptococcus pneumoniae; assay: Antibacterial activity against Streptococcus pneumoniae Mef 3449; assay type: functional
[14] = tested on: Enterococcus faecalis; assay: Antibacterial activity against Enterococcus faecalis 29212; assay type: functional
[15] = tested on: Streptococcus pneumoniae; assay: Antibacterial activity against Streptococcus pneumoniae Erm 8339; assay type: functional
[16] = tested on: Streptococcus pneumoniae; assay: Antibacterial activity against Streptococcus pneumoniae Mef 983; assay type: functional
[17] = tested on: Streptococcus pneumoniae; assay: Antibacterial activity against Streptococcus pneumoniae Mef 5649; assay type: functional
[18] = tested on: Streptococcus pneumoniae; assay: Antibacterial activity against Streptococcus pneumoniae Erm 6396; assay type: functional
[19] = tested on: Streptococcus pneumoniae; assay: Antibacterial activity against Streptococcus pneumoniae Mef 4126; assay type: functional
[20] = tested on: Streptococcus pneumoniae; assay: Antibacterial activity against Streptococcus pneumoniae Erm 5415; assay type: functional
[21] = tested on: Streptococcus pneumoniae; assay: Antibacterial activity against Streptococcus pneumoniae Mef 2382; assay type: functional
[22] = tested on: Staphylococcus aureus; assay: Antibacterial activity against Staphylococcus aureus 29213; assay type: functional
[23] = tested on: Rattus norvegicus; assay: Efficacy against Haemophilus influenzae in Sprague-Dawley rat lung infection model at 50 mg/kg; assay type: functional, organism-based; parameters: dose 50 mg/kg
[24] = tested on: Streptococcus pneumoniae; assay: Antibacterial activity against Streptococcus pneumoniae Erm 5590; assay type: functional
[25] = tested on: Streptococcus pneumoniae; assay: Antibacterial activity against Streptococcus pneumoniae Mef S 3427; assay type: functional
[26] = tested on: Streptococcus pneumoniae; assay: Antibacterial activity against Streptococcus pneumoniae Erm 8947; assay type: functional
[27] = tested on: Streptococcus pneumoniae; assay: Antibacterial activity against Streptococcus pneumoniae Erm 867; assay type: functional
[28] = tested on: Streptococcus pneumoniae; assay: Antibacterial activity against Streptococcus pneumoniae Mef 953; assay type: functional
[29] = tested on: Staphylococcus epidermidis; assay: Antibacterial activity against Staphylococcus epidermidis f50654; assay type: functional
[30] = tested on: Streptococcus pneumoniae; assay: Antibacterial activity against Streptococcus pneumoniae Mef 2880; assay type: functional
[31] = tested on: Streptococcus pneumoniae; assay: Antibacterial activity against Streptococcus pneumoniae Erm 8257; assay type: functional
[32] = tested on: Streptococcus pneumoniae; assay: Antibacterial activity against Streptococcus pneumoniae Erm 5554; assay type: functional
[33] = tested on: Streptococcus pneumoniae; assay: Antibacterial activity against Streptococcus pneumoniae Erm 10279; assay type: functional
[34] = tested on: Streptococcus pneumoniae; assay: Antibacterial activity against Streptococcus pneumoniae Mef 9142; assay type: functional
[35] = tested on: Streptococcus pneumoniae; assay: Antibacterial activity against Streptococcus pneumoniae 297-749; assay type: functional
[36] = tested on: Haemophilus influenzae; assay: Antibacterial activity against Haemophilus influenzae 49247; assay type: functional
[37] = Oral bioavailability in Sprague-Dawley rat at 15 mg/kg, po; assay type: ADME, organism-based; conditions: in vivo
[38] = Lung half life in Sprague-Dawley rat at 15 mg/kg, po; assay type: ADME, organism-based; parameters: dose 15 mg/kg, route oral
[39] = tested on: Staphylococcus aureus; assay: Antibacterial activity against Staphylococcus aureus 33591; assay type: functional
[40] = tested on: Streptococcus pyogenes; assay: Antibacterial activity against Streptococcus pyogenes 8668; assay type: functional
[41] = tested on: Streptococcus pneumoniae; assay: Antibacterial activity against Streptococcus pneumoniae Mef 10095; assay type: functional
[42] = tested on: Rattus norvegicus; assay: Efficacy against Streptococcus pneumoniae Erm in Sprague-Dawley rat lung infection model at 50 mg/kg; assay type: functional, organism-based; parameters: dose 50 mg/kg
[43] = tested on: Streptococcus pneumoniae; assay: Antibacterial activity against Streptococcus pneumoniae Erm 5399; assay type: functional
[44] = tested on: Enterococcus faecalis; assay: Antibacterial activity against Enterococcus faecalis bc11148-2; assay type: functional
[45] = tested on: Streptococcus pneumoniae; assay: Antibacterial activity against Streptococcus pneumoniae Erm 3120; assay type: functional
[46] = tested on: Streptococcus pneumoniae; assay: Antibacterial activity against Streptococcus pneumoniae Erm 4290; assay type: functional
[47] = tested on: Streptococcus pneumoniae; assay: Antibacterial activity against Streptococcus pneumoniae Mef 4331; assay type: functional
[48] = tested on: Streptococcus pneumoniae; assay: Antibacterial activity against Streptococcus pneumoniae Mef S 3435; assay type: functional
[49] = tested on: Streptococcus pneumoniae; assay: Antibacterial activity against Streptococcus pneumoniae Erm 7985; assay type: functional
[50] = tested on: Streptococcus pneumoniae; assay: Antibacterial activity against Streptococcus pneumoniae Mef 1556; assay type: functional
[51] = tested on: Staphylococcus epidermidis; assay: Antibacterial activity against Staphylococcus epidermidis 14990; assay type: functional
[52] = tested on: Streptococcus pneumoniae; assay: Antibacterial activity against Streptococcus pneumoniae Erm 6388; assay type: functional
[53] = tested on: Streptococcus pneumoniae; assay: Antibacterial activity against Streptococcus pneumoniae Mef 3855; assay type: functional
[54] = tested on: Haemophilus influenzae; assay: Antibacterial activity against Haemophilus influenzae 2762; assay type: functional
[55] = tested on: Rattus norvegicus; assay: Plasma AUC in Sprague-Dawley rat at 5 mg/kg, iv; assay type: ADME, organism-based; parameters: dose 5 mg/kg, route intravenous; conditions: in vivo
[56] = tested on: Streptococcus pneumoniae; assay: Antibacterial activity against Streptococcus pneumoniae Erm 5354; assay type: functional
[57] = Volume of distribution in Sprague-Dawley rat at 5 mg/kg, iv and 15 mg/kg, po; assay type: ADME, organism-based; conditions: in vivo, read-out: Vdss
[58] = tested on: Streptococcus pneumoniae; assay: Antibacterial activity against Streptococcus pneumoniae Mef 5654; assay type: functional
[59] = tested on: Streptococcus pneumoniae; assay: Antibacterial activity against Streptococcus pneumoniae Erm 4589; assay type: functional
[60] = tested on: Streptococcus pneumoniae; assay: Antibacterial activity against Streptococcus pneumoniae Mef 41; assay type: functional
[61] = tested on: Streptococcus pneumoniae; assay: Antibacterial activity against Streptococcus pneumoniae Mef 1790; assay type: functional
[62] = tested on: Streptococcus pneumoniae; assay: Antibacterial activity against Streptococcus pneumoniae Mef 9959; assay type: functional

C=C[C@]12OC(=O)N(CCCCn3cnc(-c4ccc(C)nc4)c3)[C@@H]1[C@@H](C)C(=O)[C@H](C)C[C@@](C)(OC)[C@H](O[C@@H]1O[C@H](C)C[C@H](N(C)C)[C@H]1O)[C@@H](C)C(=O)[C@@H](C)C(=O)O[C@@H]2CC
MIC [1]: 0.2 µg/mL (≈ 0.239 µM)
MIC [2]: 0.4 µg/mL (≈ 0.477 µM)
MIC [3]: 0.025 µg/mL (≈ 0.0298 µM)
MIC [4]: ≤ 0.05 µg/mL
MIC [5]: ≤ 0.05 µg/mL
MIC [6]: 0.025 µg/mL (≈ 0.0298 µM)
half-life [7]: 1.6 h
half-life [8]: 2.4 h
MIC [9]: 0.1 µg/mL (≈ 0.119 µM)
Kp [10]: 80
MIC [11]: 0.1 µg/mL (≈ 0.119 µM)
MIC [12]: 0.025 µg/mL (≈ 0.0298 µM)
MIC [13]: 0.2 µg/mL (≈ 0.239 µM)
MIC [14]: 0.1 µg/mL (≈ 0.119 µM)
MIC [15]: 1.56 µg/mL (≈ 1.86 µM)
MIC [16]: 0.4 µg/mL (≈ 0.477 µM)
MIC [17]: 0.2 µg/mL (≈ 0.239 µM)
MIC [18]: 0.1 µg/mL (≈ 0.119 µM)
MIC [19]: ≤ 0.05 µg/mL
MIC [20]: 0.025 µg/mL (≈ 0.0298 µM)
MIC [21]: 0.1 µg/mL (≈ 0.119 µM)
MIC [22]: 0.2 µg/mL (≈ 0.239 µM)
Activity [23]: Active
MIC [24]: 0.025 µg/mL (≈ 0.0298 µM)
MIC [25]: 0.2 µg/mL (≈ 0.239 µM)
MIC [26]: 0.4 µg/mL (≈ 0.477 µM)
MIC [27]: 0.025 µg/mL (≈ 0.0298 µM)
MIC [28]: 0.1 µg/mL (≈ 0.119 µM)
MIC [29]: 0.2 µg/mL (≈ 0.239 µM)
MIC [30]: 0.2 µg/mL (≈ 0.239 µM)
MIC [31]: ≤ 0.013 µg/mL
MIC [32]: 0.78 µg/mL (≈ 0.931 µM)
MIC [33]: 0.025 µg/mL (≈ 0.0298 µM)
MIC [34]: 0.4 µg/mL (≈ 0.477 µM)
MIC [35]: ≤ 0.05 µg/mL
MIC [36]: 3.13 µg/mL (≈ 3.73 µM)
bioavailability [37]: 35%
half-life [38]: 3.4 h
MIC [39]: > 50 µg/mL
MIC [40]: ≤ 0.05 µg/mL
MIC [41]: ≤ 0.05 µg/mL
Activity [42]: Active
MIC [43]: 0.025 µg/mL (≈ 0.0298 µM)
MIC [44]: 0.78 µg/mL (≈ 0.931 µM)
MIC [45]: 0.2 µg/mL (≈ 0.239 µM)
MIC [46]: 0.05 µg/mL (≈ 0.0597 µM)
MIC [47]: 0.4 µg/mL (≈ 0.477 µM)
MIC [48]: <=0.05 ug ml-1
MIC [49]: ≤ 0.013 µg/mL
MIC [50]: ≤ 0.05 µg/mL
MIC [51]: 0.2 µg/mL (≈ 0.239 µM)
MIC [52]: 3.13 µg/mL (≈ 3.73 µM)
MIC [53]: 0.2 µg/mL (≈ 0.239 µM)
MIC [54]: 1.56 µg/mL (≈ 1.86 µM)
AUC [55]: 2100 ng·h/mL
MIC [56]: 0.025 µg/mL (≈ 0.0298 µM)
Vd [57]: 14 L/kg
MIC [58]: 0.4 µg/mL (≈ 0.477 µM)
MIC [59]: 0.025 µg/mL (≈ 0.0298 µM)
MIC [60]: 0.1 µg/mL (≈ 0.119 µM)
MIC [61]: 0.2 µg/mL (≈ 0.239 µM)
MIC [62]: 0.2 µg/mL (≈ 0.239 µM)

Reference: ChEMBL document CHEMBL1138190, “Synthesis and antibacterial activity of novel C12 vinyl ketolides” (J Med Chem, 2006)
